Patent publication US10189772B2, “Mixtures of chelating agents including an L-enantiomer-rich MGDA, and process for making such mixtures” (BASF SE, priority 2015, dated 2019)
Where a name gives a salt, the structure may show the parent alone. Read-outs that look alike come from different tables or passages of the source.

Key:
[1] = aqueous solution, room temperature; cited from earlier work
[2] = ambient temperature, no visible precipitation after 2 weeks
Experimental: In each case, the solubility was calculated to refer to pure MGDA, without hydrate water.
In addition, the concentrations of the saturated solutions at ambient temperature in dependence of the ee value of MGDA and depending on the concentration of (B) were determined.

concentration of saturated solutions ([2]; ee value of MGDA-Na3 11 %, addition of VDA-Na3 5.5 weight-%) | concentration of saturated solutions ([2]; ee value of MGDA-Na3 39 %, addition of VDA-Na3 2.8 weight-%) | concentration of saturated solutions ([2]; ee value of MGDA-Na3 39 %, addition of VDA-Na3 5.5 weight-%) | concentration of saturated solutions ([2]; ee value of MGDA-Na3 39 %, addition of VDA-Na3 8.3 weight-%) | concentration of saturated solutions ([2]; ee value of MGDA-Na3 82 %, addition of VDA-Na3 2.8 weight-%) | concentration of saturated solutions ([2]; ee value of MGDA-Na3 82 %, addition of VDA-Na3 8.3 weight-%) | concentration of saturated solutions ([2]; ee value of MGDA-Na3 82 %, addition of VDA-Na3 zero weight-%) | concentration of saturated solutions ([2]; ee value of MGDA-Na3 96 %, addition of VDA-Na3 5.5 weight-%) | concentration of saturated solutions ([2]; ee value of MGDA-Na3 96 %, addition of VDA-Na3 zero weight-%) | concentration of saturated solutions ([2]; ee value of MGDA-Na3 zero %, addition of VDA-Na3 zero weight-%) | Compound | concentration of solutions that can be made and stored [1]
– | – | – | – | – | – | – | – | – | – | CC(C(=O)O)N(CC(=O)O)CC(=O)O (racemic) [racemic MGDA trisodium salt, methyl glycine diacetic acid] | about 40 % by weight
49 weight-% | 48 weight-% | 47 weight-% | 43 weight-% | 58 weight-% | 53 weight-% | 46 weight-% | 57 weight-% | 49 weight-% | ≤40 weight-% | CC(C(=O)O)N(CC(=O)O)CC(=O)O (centres unmarked) [MGDA-Na3, methyl glycine diacetic acid] | –
